Data: patent publication US20230141988A1, “PHARMACEUTICAL COMPOSITION FOR USE IN THE TREATMENT OF NEUROLOGICAL DISEASES” (Aclipse One Inc., priority 2020, published 2023)
Values joined by “and” are separate entries in the source; they are usually repeats but may differ in a detail not shown here. Equal entries are not always repeated. Where two headings read alike, the source gives them in different places.

How the values were obtained:
[1] = in vivo; details: male, C57BL/6J, mouse
Description: (§1) 9 male C57BL/6J mice following administration of a single subcutaneous dose of 4.40 mg/kg. The vehicle for the subcutaneous formulation contained “0.1% sodium metabisulfite solution”.
(§2) Male C57BL/6J mice were purchased from Si Bei Fu Laboratory Animal Technology Co. Ltd (Beijing, China). The animals were about 8 weeks old with body weights of 20-30 g on the dosing date. The animals were housed in a 12-hour light/12-hour dark cycle environment and had free access to food and water. All animals were fasted overnight and fed after 4 hours collection.
(§3) For group 1, plasma samples were collected from dorsal metatarsal vein at each time point after subcutaneous administrations.
(§4) For plasma samples, about 30 μL or 300 μL of blood samples were collected from each animal via dorsal metatarsal vein or heart. These blood samples were placed into the tubes containing K2EDTA. And centrifugation at 3000 g for 10 minutes in a 4° C. centrifuge. The completion time from collection was less than 30 min. The stabilizing agent of ascorbic acid at 200 mg/mL was added in a proportion of 10% in plasma. The plasma samples were stored in a freezer at −75±15° C. prior to analysis. The completion time from collection was less than 60 min.
(§5) For brain and CSF samples, The animals were fully exsanguinated with a rising concentration of CO2 gas prior to CSF and brain collection.
(§6) For CSF collection, incision was made by scissors on the neck of the rats to expose the foramen magnum. A syringe fitted with a venoclysis needle was used to sample the CSF, the tip of the needle was inserted into the membrane of foramen magnum about 1-2 mm, and a negative pressure was applied by pulling a stopcock a small length of the syringe to extract CSF fluids into a tube. The stopcock was further actuated to until a sufficient amount of CSF was collected. There should be no blood in the CSF fluid. A stabilizing agent of ascorbic acid at 200 mg/mL was added in a proportion of 10% in CSF.
(§7) For brain collection. Brain samples were collected at an adopted time point, and washed 3 times with cold saline, then dried with clean gauze and put into the weighed tube, quick frozen in an ice box and kept at −75±15° C. All brain samples were weighted and homogenized with phosphate buffered saline (PBS) by brain weight (g) to PBS volume (mL) ratio 1:3 before analysis. The stabilizing agent of ascorbic acid at 200 mg/mL was added in a proportion of 10% in grain homogenate. The actual concentration was the detected value multiplied by the dilution factor. Brain samples were collected at designed time point, quickly homogenized and kept at −75±15° C.
(§8) Calibration standard working solutions were prepared at concentrations of 2, 5, 10, 20, 50, 100, 500, 1000, 5000 and 10000 ng/mL by serial dilution of the standard stock solution in 50% acetonitrile in water. Quality control working solutions at concentrations of 5, 10, 500 and 8000 ng/mL were prepared by serial dilution of the standard stock solution in 50% acetonitrile in water. These QC samples were prepared on the day of analysis in the same way as calibration standards.
(§9) For plasma and brain samples, 3 μL of each calibration standard working solution (2, 5, 10, 20, 50, 100, 500, 1000, 5000 and 10000 ng/mL) was added to 30 μL of the blank C57BL/6J mouse plasma or brain homogenate (with 10% 200 mg/mL ascorbic acid) to achieve calibration standards of 0.2-1000 ng/mL (0.2, 0.5, 1, 2, 5, 10, 50, 100, 500, 1000 ng/mL) in a total volume of 33 μL. Quality Control (QC) samples at 0.5 ng/mL (low-1), 1 ng/mL (low-2), 50 ng/mL (mid), 800 ng/mL (high) for plasma were prepared independently for those used for the calibration curves. These QC samples were prepared on the day of analysis in the same way as calibration standards.

[2] = subcutaneous […], plasma, mean of 3 mice
Description: as §1, §2, §3, §4, §5, §6, §7, §8, §9

[3] = Pharmacokinetic study, single IV, subcutaneous, PO and IN dose, male SD rats (plasma); details: rat, in vivo
Description: (§10) The vehicle for the IV, subcutaneous, PO and IN formulation contained “0.1% sodium metabisulfite solution”.
(§11) Male SD rats were purchased from Si Bei Fu Laboratory Animal Technology Co. Ltd (Beijing, China). The animals were about 8 weeks old with body weights of 200-300 g on the dosing date. The animals were housed in a 12-hour light/12-hour dark cycle environment and had free access to food and water. All animals were fasted overnight and fed after 4 hours collection.
(§12) Plasma samples were collected from jugular vein at each time point after IV, subcutaneous, PO and IN administrations.
(§13) About 200 μL of blood samples were collected from each animal via jugular vein. These blood samples were placed into the tubes containing K2EDTA. And centrifugation at 3000 g for 10 minutes in a 4° C. centrifuge. The completion time from collection was less than 30 min. The stabilizing agent of ascorbic acid at 200 mg/mL was added in a proportion of 10% in plasma. The plasma samples were stored in a freezer at −75±15° C. prior to analysis. The completion time from collection was less than 60 min.
(§14) Calibration standard working solutions were prepared at concentrations of 2, 5, 10, 20, 50, 100, 500, 1000, 5000 and 10000 ng/mL by serial dilution of the standard stock solution in 50% acetonitrile in water. Quality control working solutions at concentrations of 5, 10, 20, 500 and 8000 ng/mL were prepared by serial dilution of the standard stock solution in 50% acetonitrile in water. These QC samples were prepared on the day of analysis in the same way as calibration standards.
(§15) For plasma samples, 2 μL of each calibration standard working solution (2, 5, 10, 20, 50, 100, 500, 1000, 5000 and 10000 ng/mL) was added to 20 μL of the blank SD rat plasma (with 10% 200 mg/mL ascorbic acid) to achieve calibration standards of 0.2-1000 ng/mL (0.2, 0.5, 1, 2, 5, 10, 50, 100, 500, 1000 ng/mL) in a total volume of 22 μL. Quality Control (QC) samples at 0.5 ng/mL (low-1), 1 ng/mL (low-2) and 2 ng/mL (low-3), 50 ng/mL (mid), 800 ng/mL (high) for plasma were prepared independently for those used for the calibration curves. These QC samples were prepared on the day of analysis in the same way as calibration standards. The total volumes of 22 μL of standards, 22 μL of QC samples and 22 μL of unknown samples (20 μL of unknown plasma (with 10% 200 mg/mL ascorbic acid) with 2 μL 50% acetonitrile) were added to 200 μL of acetonitrile containing IS to precipitate proteins. Then the samples were vortexed for 30 sec. After centrifugation at 4° C., 4700 rpm for 30 min, and supernatant was diluted 2 times with water, 10 μL of the diluted supernatant was injected into the LC-MS/MS system for quantitative analysis.
All the samples were processed on ice.
(§16) The LC-MS/MS system consisted of two Shimadzu LC-30AD pumps, a DGU-20A5R degasser, a Rack changer II and LCMS-8060 LC/MS/MS instrument mass spectrometer.
(§17) OD-3R Particle size 3 μm 4.6 mm×150 mm column at room temperature. The mobile phase was composed of A: Water (5 mM Ammonium Acetate); B: Ethanol (5 mM Ammonium Acetate). The flow rate was 0.5 mL/min. The injection volume was 10 μL.
(§18) A multiple reaction monitoring (MRM) method was selected for quantitative analysis. […] The instrument parameters were set as follows: ion spray voltage: 8060; heating gas flow: 10 L/min; interface temperature: 250° C.; DL temperature: 220° C.; heat block temperature: 400° C.; drying gas flow: 10 L/min.
(§19) Data acquisition was performed by Lab Solutions version 5.89 Software (Shimadzu). All concentration data was reported with 3 significant figures. Data statistics were performed using Excel 2010 software.
(§20) The linear trapezoidal algorithm was used for AUC calculation.

[4] = Plasma and CSF pharmacokinetic study, single sublingual, oral or subcutaneous dose, male Beagle dogs; type: in vivo
Description: Animals were fed twice daily. […] Food was withheld until 4-hour post-dose.
All blood samples were collected from a peripheral vessel.
For CSF collection, a polypropylene tube was first weighted to accuracy of 0.1 mg (weight #1). CSF was collected in the tube and weighted again (weight #2). Total CSF weight was calculated by subtracting weight #1 from weight #2. Samples were kept on ice and protected from sunlight. Stabilizing agent (ascorbic acid 200 mg/mL) was added within 60 minutes in a proportion of 10% in CSF. Frozen CSF samples on dry ice were stored at −60° C. or lower until bioanalysis.
All CSF samples were added with the equal volume of plasma. […] 30 μL supernatant was then mixed with 30 μL water, vortex-mixed well and centrifuged at 4° C.
Dilution procedure description: Dilution factor as 5—An aliquot of 2 μL sample was added with 8 μL blank matrix.
The flow rate was 0.6 mL/min. The injection volume was 3 μL. The following gradient was implemented: […]

[5] = rat, in vivo; for plasma concentration: male, SD
Description: as §10, §11, §12, §13, §14, §15
All the samples were processed on ice.
as §16, §17, §18, §19, §20

[6] = in vivo; details: male, SD, rat
Description: The vehicle for the IN and PO formulation contained “0.1% sodium metabisulfite solution”.
The animals were about 8 weeks old with body weights of 200-300 g on the dosing date. The animals were housed in a 12-hour light/12-hour dark cycle environment and had free access to food and water. All animals were fasted overnight and fed after 4 hours collection.
For group 2, plasma, CSF and brain samples were collected at 0.5 and 1 h post dose.
For Group 2 (PO dose, 10.56 mg/kg), blood, CSF and brain samples were collected from 3 mice at two time point: 0.5 h and 1 h post dose.
For plasma samples, about 200 μL of blood samples were collected from each animal via jugular vein. These blood samples were placed into the tubes containing K2EDTA, and centrifuged at 3000 g for 10 minutes in a 4° C. centrifuge. The completion time from collection was less than 30 min. The stabilizing agent of ascorbic acid at 200 mg/mL was added in a proportion of 10% in plasma. The plasma samples were stored in a freezer at −75±15° C. prior to analysis. The completion time from collection was less than 60 min.
For brain and CSF samples, The animals were fully exsanguinated with a rising concentration of CO2 gas prior to CSF and brain collection. […]
For brain collection. […] The actual concentration was the detected value multiplied by the dilution factor. […]

[7] = Oxidation in liquid solutions; type: physicochemical; details: in the liquid solutions
[8] = male Beagle dogs (fasted), single SL 5 mg/kg, plasma, individual dogs
[9] = male, beagle, dog, in vivo, 5 mg/kg, CSF concentration
[10] = male, beagle, dog, in vivo, 5 mg/kg, plasma concentration
[11] = male, beagle, dog, in vivo, po, 10 mg/kg, CSF concentration
[12] = male, beagle, dog, in vivo, po, 10 mg/kg, plasma concentration
[13] = male, beagle, dog, in vivo, sc, 1 mg/kg, CSF concentration
[14] = male, beagle, dog, in vivo, sc, 1 mg/kg, plasma concentration

Compound `CN1CCc2cccc3c2[C@@H]1Cc1ccc(O)c(O)c1-3` has a concentration at 0.5 h ([1]; CSF concentration) of 9.59 ng/mL, a concentration at […] ([1]; CSF concentration) of 20.5 ng/mL and a concentration at 0.5 h ([1]; plasma concentration) of 169 ng/mL. For the same compound, the concentration at 1 h ([1]; plasma concentration) was 52 ng/mL, the concentration at 2 h ([1]; plasma concentration) was 14.9 ng/mL and the concentration at […] ([1]; plasma concentration) was 760 ng/mL and 721 ng/mL. For the same compound, the concentration at 0.5 h ([1]; plasma concentration, Mean) was 187 ng/mL, the concentration at 1 h ([1]; plasma concentration, Mean) was 41 ng/mL and the concentration at 2 h ([1]; plasma concentration, Mean) was 18.7 ng/mL. For the same compound, the concentration at […] ([1]; plasma concentration, Mean) was 970 ng/mL and 692 ng/mL, the AUClast/D [2] was 73.8 mg·h/mL and the Cl ([3]; iv, 0.88 mg/kg) was 209 mL/min/kg. It also gave an AUClast/D ([3]; po, […]) of 7.39 mg·h/mL, an AUClast/D ([3]; sc, 0.88 mg/kg) of 77.3 mg·h/mL and an MRT inf ([4]; dog, in vivo, male Beagle dogs (fasted), single PO 10 mg/kg, plasma, individual dogs) of 8.44 h. The MRT inf ([4]; dog, in vivo, male Beagle dogs (fasted), single SL 5 mg/kg, CSF, mean) was 3.18 h, the Kp ([4]; dog, in vivo, male Beagle dogs (fasted), single SL 5 mg/kg, individual dogs, read-out: AUC Ratio (AUClast ratio of CSF to total plasma)) was 0.337 and the AUC(0-inf) ([4]; dog, in vivo, male Beagle dogs (fasted), single SL 5 mg/kg, plasma, mean, read-out: AUCinf) was 162 ng·h/mL. The AUMCExtra ([4]; male Beagle dogs (fasted), single PO 10 mg/kg, plasma, individual dogs, 10 mg/kg) was 31.9%, the AUMCExtra ([4]; male Beagle dogs (fasted), single SL 5 mg/kg, CSF, individual dogs) was 5.44% and 18.5% and the AUCExtra [4, 8] was 7.39%. For the same compound, the AUMCExtra [4, 8] was 10.7%, the AUC(0-inf) ([4]; male, beagle, dog, CSF, po, 10 mg/kg, male Beagle dogs (fasted), single PO 10 mg/kg, CSF, individual dogs, read-out: AUCinf) was 181 ng·h/mL and the Kp ([4]; male, beagle, dog, in vivo, 5 mg/kg, AUClast ratio of CSF to total plasma) was 1.08 ± 0.964. For the same compound, the concentration at 2 h [4, 9] was 76.2 ng/mL, the concentration at […] [4, 9] was 289 ng/mL and the AUC(0-t) ([4]; male, beagle, dog, in vivo, 5 mg/kg, male Beagle dogs (fasted), single SL 5 mg/kg, CSF, individual dogs) was 122 ng·h/mL. For the same compound, the AUC(0-t) ([4]; male, beagle, dog, in vivo, 5 mg/kg, male Beagle dogs (fasted), single SL 5 mg/kg, CSF, mean) was 162 ng·h/mL, the Cmax ([4]; male, beagle, dog, in vivo, 5 mg/kg, male Beagle dogs (fasted), single SL 5 mg/kg, plasma, individual dogs, read-out: Cmax) was 162 ng/mL and the Cmax ([4]; male, beagle, dog, in vivo, 5 mg/kg, maximum CSF concentration (Cmax)) was 126 ± 144 ng/mL. For the same compound, the Cmax ([4]; male, beagle, dog, in vivo, 5 mg/kg, maximum plasma concentration (Cmax)) was 143 ± 24 ng/mL, the concentration at 0.5 h [4, 10] was 162 ng/mL and the concentration at 1 h [4, 10] was 116 ng/mL. The concentration at 2 h [4, 10] was 10.8 ng/mL, the concentration at 4 h [4, 10] was 3.39 ng/mL and the concentration at 8 h [4, 10] was 2.74 ng/mL. The concentration at […] [4, 10] was 151 ng/mL, the concentration at 0.5 h ([4]; male, beagle, dog, in vivo, 5 mg/kg, single SL 5 mg/kg, 0.500 h, individual animal, read-out: CSF concentration) was 6.23 ng/mL and the concentration at 8 h ([4]; male, beagle, dog, in vivo, 5 mg/kg, single SL 5 mg/kg, 8.00 h, individual animal, read-out: CSF concentration) was 1.16 ng/mL. For the same compound, the concentration at 24 h ([4]; male, beagle, dog, in vivo, 5 mg/kg, single SL 5 mg/kg, 24.0 h, individual animal, read-out: plasma concentration) was 1.49 ng/mL, the plasma concentration ([4]; male, beagle, dog, in vivo, po, 10 mg/kg, 1 h) was 63.3 ng/mL and the Kp ([4]; male, beagle, dog, in vivo, po, 10 mg/kg, AUC Ratio (AUClast ratio of CSF to total plasma)) was 0.33. It also gave a Kp ([4]; male, beagle, dog, in vivo, po, 10 mg/kg, AUClast ratio of CSF to total plasma) of 0.27 ± 0.0663, a concentration at 0.5 h [4, 11] of 48.5 ng/mL and a concentration at 4 h [4, 11] of 8.15 ng/mL. It also gave a concentration at […] [4, 11] of 24.7 ng/mL, a Tmax ([4]; male, beagle, dog, in vivo, po, 10 mg/kg, Tmax) of 0.5 h and a Cmax ([4]; male, beagle, dog, in vivo, po, 10 mg/kg, male Beagle dogs (fasted), single PO 10 mg/kg, plasma, individual dogs, read-out: Cmax) of 84.8 ng/mL. The concentration at 0.5 h [4, 12] was 78 ng/mL, the concentration at 1 h [4, 12] was 42.2 ng/mL and the concentration at 2 h [4, 12] was 22.9 ng/mL. For the same compound, the concentration at 4 h [4, 12] was 15.6 ng/mL, the concentration at 8 h [4, 12] was 9.36 ng/mL and the concentration at 24 h [4, 12] was 4.5 ng/mL. For the same compound, the concentration at […] [4, 12] was 9.2 ng/mL, the concentration at 0.5 h ([4]; male, beagle, dog, in vivo, po, 10 mg/kg, single PO 10 mg/kg, 0.500 h, individual animal, read-out: CSF concentration) was 17.8 ng/mL and the concentration at 4 h ([4]; male, beagle, dog, in vivo, po, 10 mg/kg, single PO 10 mg/kg, 4.00 h, individual animal, read-out: CSF concentration) was 12.4 ng/mL. For the same compound, the plasma concentration ([4]; male, beagle, dog, in vivo, sc, 1 mg/kg, 1 h) was 20.7 ng/mL, the plasma concentration ([4]; male, beagle, dog, in vivo, sc, 1 mg/kg, 2 h) was 2.17 ng/mL and the Kp ([4]; male, beagle, dog, in vivo, sc, 1 mg/kg, AUC Ratio) was 0.806. It also gave an AUC(0-inf) ([4]; male, beagle, dog, in vivo, sc, 1 mg/kg, AUCinf) of 88.4 ± 23.8 ng·h/mL, a Kp ([4]; male, beagle, dog, in vivo, sc, 1 mg/kg, AUClast ratio of CSF to total plasma) of 0.964 ± 0.456 and a concentration at 0.033 h [4, 13] of 1.73 ng/mL. It also gave a concentration at 0.5 h [4, 13] of 15.6 ng/mL, a concentration at 2 h [4, 13] of 6.55 ng/mL and a concentration at 8 h [4, 13] of 10.8 ng/mL. For the same compound, the AUC(0-t) ([4]; male, beagle, dog, in vivo, sc, 1 mg/kg, CSF, single SC 1 mg/kg, individual animal) was 119 ng·h/mL, the Cmax ([4]; male, beagle, dog, in vivo, sc, 1 mg/kg, plasma Cmax) was 110 ± 19.4 ng/mL and the concentration at 0.5 h [4, 14] was 76.6 ng/mL. It also gave a concentration at 1 h [4, 14] of 27.9 ng/mL, a concentration at 2 h [4, 14] of 3.58 ng/mL and a concentration at 4 h [4, 14] of 1.11 ng/mL. For the same compound, the concentration at 24 h [4, 14] was 1.04 ng/mL, the concentration at […] [4, 14] was 89.2 ng/mL and the Cmax ([4]; male, beagle, dog, in vivo, sc, 1 mg/kg, plasma, single SC 1 mg/kg, individual animal, read-out: Cmax) was 113 ng/mL. It also gave a concentration at 0.033 h ([4]; male, beagle, dog, in vivo, sc, 1 mg/kg, single SC 1 mg/kg, 119 s, individual animal, read-out: CSF concentration) of 22.6 ng/mL, a concentration at 0.033 h ([4]; male, beagle, dog, in vivo, sc, 1 mg/kg, single SC 1 mg/kg, 119 s, mean, read-out: CSF concentration) of 12.2 ng/mL and a concentration at 0.5 h ([4]; male, beagle, dog, in vivo, sc, 1 mg/kg, single SC 1 mg/kg, 0.500 h, individual animal, read-out: CSF concentration) of 17.8 ng/mL. For the same compound, the concentration at 1 h ([4]; male, beagle, dog, in vivo, sc, 1 mg/kg, single SC 1 mg/kg, 1.00 h, individual animal, read-out: plasma concentration) was 11.9 ng/mL, the concentration at 1 h ([4]; male, beagle, dog, in vivo, sc, 1 mg/kg, single SC 1 mg/kg, 1.00 h, mean, read-out: CSF concentration) was 11.6 ng/mL and the concentration at 2 h ([4]; male, beagle, dog, in vivo, sc, 1 mg/kg, single SC 1 mg/kg, 2.00 h, individual animal, read-out: CSF concentration) was 12.8 ng/mL. For the same compound, the concentration at 4 h ([4]; male, beagle, dog, in vivo, sc, 1 mg/kg, single SC 1 mg/kg, 4.00 h, individual animal, read-out: CSF concentration) was 10.2 ng/mL, the concentration at 8 h ([4]; male, beagle, dog, in vivo, sc, 1 mg/kg, single SC 1 mg/kg, 8.00 h, individual animal, read-out: CSF concentration) was 4.37 ng/mL and the Kp ([4]; male, beagle, dog, in vivo, AUClast ratio of CSF to total plasma, single SC 1 mg/kg, individual animal, read-out: AUC Ratio) was 1.48. For the same compound, the AUC(0-t) ([4]; male, beagle, dog, plasma, 5 mg/kg, male Beagle dogs (fasted), single SL 5 mg/kg, individual dogs) was 165 ng·h/mL, the AUC(0-inf) ([4]; male, beagle, dog, plasma, 5 mg/kg, male Beagle dogs (fasted), single SL 5 mg/kg, plasma, individual dogs, read-out: AUCinf) was 178 ng·h/mL and the AUC(0-inf) ([4]; male, beagle, dog, plasma, sc, 1 mg/kg, plasma, single SC 1 mg/kg, individual animal, read-out: AUCinf) was 115 ng·h/mL. The plasma concentration ([5]; 0.5 h) was 35.7 ng/mL, the plasma concentration ([5]; iv, 0.88 mg/kg, 1 h) was 6.23 ng/mL and the “animal death related to drug administration” value [5] was “no animal death related to drug administration”. For the same compound, the “drug-related changes in clinical signs and behavioral responses” value [5] was “no obvious drug-related changes in clinical signs and behavioral responses”, the Kp at 0.5 h [6] was 0.233 and the concentration at 0.5 h [6] was 299 ng/g. The oxidation [7] was “significant oxidation”.
